Assay results from the kinase profiling compilation of Christmann-Franck et al. (2016).

Experiments:
Assay in all cases: KINOMEscan competition binding
Conditions in all cases: compound 10.0 µM
MINK1 (human) = MINK1 (human) (UniProt Q8N4C8)
ADCK3 (human) = ADCK3 (human) (UniProt Q8NI60)
RIOK3 (human) = RIOK3 (human) (UniProt O14730)
DAPK2 (human) = DAPK2 (human) (UniProt Q9UIK4)
RPS6KA3 KD1 (human) = RPS6KA3 KD1 (human) (UniProt P51812)
CDC2L2 (human) = CDC2L2 (human) (UniProt Q9UQ88)
CIT (human) = CIT (human) (UniProt O14578)
Sequence of CIT (human) (O14578 whole entry, looked up): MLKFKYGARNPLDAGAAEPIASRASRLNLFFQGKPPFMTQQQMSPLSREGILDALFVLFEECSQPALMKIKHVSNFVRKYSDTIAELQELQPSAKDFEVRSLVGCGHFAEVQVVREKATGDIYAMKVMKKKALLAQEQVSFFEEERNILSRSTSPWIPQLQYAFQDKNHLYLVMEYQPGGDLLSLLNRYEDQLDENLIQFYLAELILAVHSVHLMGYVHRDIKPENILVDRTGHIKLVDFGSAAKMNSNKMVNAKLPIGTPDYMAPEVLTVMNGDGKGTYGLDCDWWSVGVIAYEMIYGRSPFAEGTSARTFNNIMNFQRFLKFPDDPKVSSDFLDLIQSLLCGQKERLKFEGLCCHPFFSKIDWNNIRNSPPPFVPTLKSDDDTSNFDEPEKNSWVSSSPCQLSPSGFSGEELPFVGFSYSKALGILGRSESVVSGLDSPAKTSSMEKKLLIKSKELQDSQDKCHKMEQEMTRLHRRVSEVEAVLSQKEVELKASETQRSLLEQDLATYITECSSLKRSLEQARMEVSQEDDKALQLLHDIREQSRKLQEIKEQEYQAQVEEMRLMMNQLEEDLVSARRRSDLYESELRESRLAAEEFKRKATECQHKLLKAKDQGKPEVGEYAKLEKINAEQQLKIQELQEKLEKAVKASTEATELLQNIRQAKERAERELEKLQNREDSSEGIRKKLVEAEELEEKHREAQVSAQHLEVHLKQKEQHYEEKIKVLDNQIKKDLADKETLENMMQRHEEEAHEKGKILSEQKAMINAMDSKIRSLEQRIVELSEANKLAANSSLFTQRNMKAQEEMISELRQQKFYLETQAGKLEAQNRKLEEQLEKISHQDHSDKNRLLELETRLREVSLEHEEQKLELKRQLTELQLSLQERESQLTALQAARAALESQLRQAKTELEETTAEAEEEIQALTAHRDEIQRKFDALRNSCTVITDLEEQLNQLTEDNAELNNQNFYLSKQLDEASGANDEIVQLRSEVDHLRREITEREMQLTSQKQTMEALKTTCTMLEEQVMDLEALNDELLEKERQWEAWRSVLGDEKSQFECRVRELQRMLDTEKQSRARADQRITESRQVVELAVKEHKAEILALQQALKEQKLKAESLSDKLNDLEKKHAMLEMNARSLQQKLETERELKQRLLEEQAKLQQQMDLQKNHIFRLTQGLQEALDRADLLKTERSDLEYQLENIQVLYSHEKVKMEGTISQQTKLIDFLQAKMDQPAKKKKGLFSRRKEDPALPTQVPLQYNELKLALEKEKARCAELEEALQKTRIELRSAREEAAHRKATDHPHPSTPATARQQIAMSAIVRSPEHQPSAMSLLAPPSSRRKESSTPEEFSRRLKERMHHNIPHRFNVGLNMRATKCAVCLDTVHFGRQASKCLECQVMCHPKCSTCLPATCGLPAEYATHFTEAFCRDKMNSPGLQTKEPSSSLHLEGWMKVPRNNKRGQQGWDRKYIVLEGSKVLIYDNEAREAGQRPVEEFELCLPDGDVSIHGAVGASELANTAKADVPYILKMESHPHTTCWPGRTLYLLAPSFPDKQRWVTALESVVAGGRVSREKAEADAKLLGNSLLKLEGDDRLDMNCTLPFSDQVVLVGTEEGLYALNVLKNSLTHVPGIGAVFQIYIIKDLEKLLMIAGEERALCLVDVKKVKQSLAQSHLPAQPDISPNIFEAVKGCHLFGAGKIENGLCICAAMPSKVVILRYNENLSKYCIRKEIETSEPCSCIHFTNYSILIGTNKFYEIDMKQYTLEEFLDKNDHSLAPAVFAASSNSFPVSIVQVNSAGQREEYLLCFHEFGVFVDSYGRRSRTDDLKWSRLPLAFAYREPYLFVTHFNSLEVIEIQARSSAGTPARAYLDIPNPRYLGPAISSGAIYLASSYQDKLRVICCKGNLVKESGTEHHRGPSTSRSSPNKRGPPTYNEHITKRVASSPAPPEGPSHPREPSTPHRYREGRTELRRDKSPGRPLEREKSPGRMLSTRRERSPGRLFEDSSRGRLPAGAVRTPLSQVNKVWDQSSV

PRKD1 (human) = PRKD1 (human) (UniProt Q15139)
DAPK1 (human) = DAPK1 (human) (UniProt P53355)
MAP3K5 (human) = MAP3K5 (human) (UniProt Q99683)
CDK3 (human) = CDK3 (human) (UniProt Q00526)
CDK9 (human) = CDK9 (human) (UniProt P50750)
TGFBR2 (human) = TGFBR2 (human) (UniProt P37173)
MAPK4 (human) = MAPK4 (human) (UniProt P31152)
RIPK4 (human) = RIPK4 (human) (UniProt P57078)
FRK (human) = FRK (human) (UniProt P42685)
Sequence of FRK (human) (P42685 whole entry, looked up): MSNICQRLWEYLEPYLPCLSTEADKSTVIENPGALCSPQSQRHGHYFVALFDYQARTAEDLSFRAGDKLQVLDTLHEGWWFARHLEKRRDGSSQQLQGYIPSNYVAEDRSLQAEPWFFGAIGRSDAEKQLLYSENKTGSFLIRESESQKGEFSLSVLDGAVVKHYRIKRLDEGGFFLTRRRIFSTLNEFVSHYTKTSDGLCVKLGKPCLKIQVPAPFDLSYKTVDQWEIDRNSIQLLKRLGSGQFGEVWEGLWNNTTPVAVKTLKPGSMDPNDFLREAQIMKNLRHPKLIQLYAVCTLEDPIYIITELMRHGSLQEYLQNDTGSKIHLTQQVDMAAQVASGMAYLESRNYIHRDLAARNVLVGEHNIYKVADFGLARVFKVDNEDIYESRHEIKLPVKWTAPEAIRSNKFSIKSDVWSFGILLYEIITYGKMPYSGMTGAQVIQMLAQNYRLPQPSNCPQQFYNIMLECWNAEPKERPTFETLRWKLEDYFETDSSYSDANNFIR

MAPK9 (human) = MAPK9 (human) (UniProt P45984)
ACVR2B (human) = ACVR2B (human) (UniProt Q13705)
CHEK2 (human) = CHEK2 (human) (UniProt O96017)
TNK1 (human) = TNK1 (human) (UniProt Q13470)
CSNK1G1 (human) = CSNK1G1 (human) (UniProt Q9HCP0)
Sequence of CSNK1G1 (human) (Q9HCP0 whole entry, looked up): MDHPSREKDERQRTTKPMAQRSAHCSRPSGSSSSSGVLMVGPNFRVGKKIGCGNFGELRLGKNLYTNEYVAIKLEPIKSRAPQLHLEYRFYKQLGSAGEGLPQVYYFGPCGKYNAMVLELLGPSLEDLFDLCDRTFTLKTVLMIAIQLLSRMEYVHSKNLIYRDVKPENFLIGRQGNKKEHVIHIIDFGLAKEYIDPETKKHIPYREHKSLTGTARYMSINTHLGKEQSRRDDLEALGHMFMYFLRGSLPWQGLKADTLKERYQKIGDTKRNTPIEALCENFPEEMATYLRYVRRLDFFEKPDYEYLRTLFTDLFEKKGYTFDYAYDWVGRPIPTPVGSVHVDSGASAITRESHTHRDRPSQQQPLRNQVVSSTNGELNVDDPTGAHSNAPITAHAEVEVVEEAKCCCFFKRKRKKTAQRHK

MAP4K4 (human) = MAP4K4 (human) (UniProt O95819)
Sequence of MAP4K4 (human) (O95819 whole entry, looked up): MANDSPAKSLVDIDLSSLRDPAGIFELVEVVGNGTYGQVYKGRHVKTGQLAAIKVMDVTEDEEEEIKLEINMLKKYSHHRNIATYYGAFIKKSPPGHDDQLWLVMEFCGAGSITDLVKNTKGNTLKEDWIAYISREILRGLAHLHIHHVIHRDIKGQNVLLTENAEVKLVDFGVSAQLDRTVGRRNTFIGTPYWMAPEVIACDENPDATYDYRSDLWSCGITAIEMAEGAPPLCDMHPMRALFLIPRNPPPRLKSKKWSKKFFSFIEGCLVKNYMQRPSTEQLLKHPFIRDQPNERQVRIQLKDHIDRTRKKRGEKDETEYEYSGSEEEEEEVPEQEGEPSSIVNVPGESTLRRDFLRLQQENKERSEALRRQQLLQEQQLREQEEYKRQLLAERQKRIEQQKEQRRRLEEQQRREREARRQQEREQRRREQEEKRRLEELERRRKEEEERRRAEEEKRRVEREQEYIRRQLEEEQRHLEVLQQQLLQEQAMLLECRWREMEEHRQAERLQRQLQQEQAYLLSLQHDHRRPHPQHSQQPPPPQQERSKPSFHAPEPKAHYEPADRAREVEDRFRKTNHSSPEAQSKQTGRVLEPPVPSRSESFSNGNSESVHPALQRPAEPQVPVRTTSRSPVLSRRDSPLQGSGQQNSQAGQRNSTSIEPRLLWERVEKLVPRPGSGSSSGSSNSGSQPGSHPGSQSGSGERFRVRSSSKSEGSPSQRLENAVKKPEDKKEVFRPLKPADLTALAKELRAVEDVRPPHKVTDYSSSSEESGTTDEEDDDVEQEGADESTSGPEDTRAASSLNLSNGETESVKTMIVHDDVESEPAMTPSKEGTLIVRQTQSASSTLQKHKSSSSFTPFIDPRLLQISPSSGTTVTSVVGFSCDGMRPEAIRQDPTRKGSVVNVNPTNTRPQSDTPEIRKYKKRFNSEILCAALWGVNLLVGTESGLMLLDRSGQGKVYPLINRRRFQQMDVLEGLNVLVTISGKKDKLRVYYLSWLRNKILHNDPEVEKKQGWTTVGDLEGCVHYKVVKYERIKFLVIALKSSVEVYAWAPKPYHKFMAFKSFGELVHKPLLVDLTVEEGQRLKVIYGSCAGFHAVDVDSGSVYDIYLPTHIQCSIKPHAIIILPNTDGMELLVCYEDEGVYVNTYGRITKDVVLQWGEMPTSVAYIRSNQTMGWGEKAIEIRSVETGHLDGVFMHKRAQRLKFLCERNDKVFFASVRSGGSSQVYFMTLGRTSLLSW

RPS6KA6 KD2 (human) = RPS6KA6 KD2 (human) (UniProt Q9UK32)
STK25 (human) = STK25 (human) (UniProt O00506)
STK10 (human) = STK10 (human) (UniProt O94804)
PAK6 (human) = PAK6 (human) (UniProt Q9NQU5)
Sequence of PAK6 (human) (Q9NQU5 whole entry, looked up): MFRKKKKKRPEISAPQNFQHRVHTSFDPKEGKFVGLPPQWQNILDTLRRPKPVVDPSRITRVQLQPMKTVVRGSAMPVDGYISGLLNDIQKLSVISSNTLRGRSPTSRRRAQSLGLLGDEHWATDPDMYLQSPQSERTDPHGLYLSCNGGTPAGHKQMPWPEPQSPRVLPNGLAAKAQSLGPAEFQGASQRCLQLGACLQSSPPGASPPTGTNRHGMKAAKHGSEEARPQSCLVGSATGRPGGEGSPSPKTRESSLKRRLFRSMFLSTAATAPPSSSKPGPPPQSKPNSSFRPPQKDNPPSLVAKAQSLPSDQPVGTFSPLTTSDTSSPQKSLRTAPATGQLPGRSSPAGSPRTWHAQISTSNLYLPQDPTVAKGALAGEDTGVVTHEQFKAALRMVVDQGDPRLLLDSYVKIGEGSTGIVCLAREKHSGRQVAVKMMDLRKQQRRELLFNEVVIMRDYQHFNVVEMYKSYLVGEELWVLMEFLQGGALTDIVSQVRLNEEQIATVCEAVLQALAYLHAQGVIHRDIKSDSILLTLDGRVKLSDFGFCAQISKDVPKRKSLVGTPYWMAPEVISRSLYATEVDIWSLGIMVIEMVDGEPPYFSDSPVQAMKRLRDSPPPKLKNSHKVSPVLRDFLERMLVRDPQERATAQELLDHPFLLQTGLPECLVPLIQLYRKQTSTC

MAPK1 (human) = MAPK1 (human) (UniProt P28482)
PAK1 (human) = PAK1 (human) (UniProt Q13153)
EPHA4 (human) = EPHA4 (human) (UniProt P54764)
RIOK1 (human) = RIOK1 (human) (UniProt Q9BRS2)
PTK2B (human) = PTK2B (human) (UniProt Q14289)
TXK (human) = TXK (human) (UniProt P42681)
LATS2 (human) = LATS2 (human) (UniProt Q9NRM7)
LTK (human) = LTK (human) (UniProt P29376)
MAP3K11 (human) = MAP3K11 (human) (UniProt Q16584)
EPHA5 (human) = EPHA5 (human) (UniProt P54756)
[1] = biological target: JAK1 JH1 catalytic (human) (UniProt P23458)
CSNK1G3 (human) = CSNK1G3 (human) (UniProt Q9Y6M4)
STK32B (human) = STK32B (human) (UniProt Q9NY57)
CAMK2G (human) = CAMK2G (human) (UniProt Q13555)

SMILES | kinase still bound, per cent of control (MINK1 (human)) [%] | kinase still bound, per cent of control (ADCK3 (human)) [%] | kinase still bound, per cent of control (RIOK3 (human)) [%] | kinase still bound, per cent of control (DAPK2 (human)) [%] | kinase still bound, per cent of control (RPS6KA3 KD1 (human)) [%] | kinase still bound, per cent of control (CDC2L2 (human)) [%] | kinase still bound, per cent of control (CIT (human)) [%] | kinase still bound, per cent of control (PRKD1 (human)) [%] | kinase still bound, per cent of control (DAPK1 (human)) [%] | kinase still bound, per cent of control (MAP3K5 (human)) [%] | kinase still bound, per cent of control (CDK3 (human)) [%] | kinase still bound, per cent of control (CDK9 (human)) [%] | kinase still bound, per cent of control (TGFBR2 (human)) [%] | kinase still bound, per cent of control (MAPK4 (human)) [%] | kinase still bound, per cent of control (RIPK4 (human)) [%] | kinase still bound, per cent of control (FRK (human)) [%] | kinase still bound, per cent of control (MAPK9 (human)) [%] | kinase still bound, per cent of control (ACVR2B (human)) [%] | kinase still bound, per cent of control (CHEK2 (human)) [%] | kinase still bound, per cent of control (TNK1 (human)) [%] | further results
Cc1ccc2nc(NCCN)c3ncc(C)n3c2c1 | 100 | 61 | 100 | 65 | 100 | 1 | 100 | 47 | 47 | 80 | 100 | 35 | 93 | 89 | 100 | 100 | 44 | 100 | 97 | 100 | kinase still bound, per cent of control (CSNK1G1 (human)): 94%; kinase still bound, per cent of control (MAP4K4 (human)): 100%; kinase still bound, per cent of control (RPS6KA6 KD2 (human)): 40%; kinase still bound, per cent of control (STK25 (human)): 79%; kinase still bound, per cent of control (STK10 (human)): 100%; kinase still bound, per cent of control (PAK6 (human)): 100%; kinase still bound, per cent of control (MAPK1 (human)): 97%; kinase still bound, per cent of control (PAK1 (human)): 100%; kinase still bound, per cent of control (EPHA4 (human)): 100%; kinase still bound, per cent of control (RIOK1 (human)): 100%; kinase still bound, per cent of control (PTK2B (human)): 100%; kinase still bound, per cent of control (TXK (human)): 90%; kinase still bound, per cent of control (LATS2 (human)): 100%; kinase still bound, per cent of control (LTK (human)): 95%; kinase still bound, per cent of control (MAP3K11 (human)): 87%; kinase still bound, per cent of control (EPHA5 (human)): 100%; kinase still bound, per cent of control [1]: 100%; kinase still bound, per cent of control (CSNK1G3 (human)): 100%; kinase still bound, per cent of control (STK32B (human)): 100%; kinase still bound, per cent of control (CAMK2G (human)): 100%
N#Cc1c(NC(=O)c2cccc3ccccc23)sc2c1CCCC2 | 95 | 100 | 100 | 91 | 100 | 100 | 100 | 100 | 85 | 94 | 97 | 83 | 100 | 90 | 96 | 58 | 4.8 | 67 | 84 | 74 | kinase still bound, per cent of control (CSNK1G1 (human)): 50%; kinase still bound, per cent of control (MAP4K4 (human)): 66%; kinase still bound, per cent of control (RPS6KA6 KD2 (human)): 77%; kinase still bound, per cent of control (STK25 (human)): 93%; kinase still bound, per cent of control (STK10 (human)): 67%; kinase still bound, per cent of control (PAK6 (human)): 88%; kinase still bound, per cent of control (MAPK1 (human)): 89%; kinase still bound, per cent of control (PAK1 (human)): 100%; kinase still bound, per cent of control (EPHA4 (human)): 100%; kinase still bound, per cent of control (RIOK1 (human)): 100%; kinase still bound, per cent of control (PTK2B (human)): 79%; kinase still bound, per cent of control (TXK (human)): 100%; kinase still bound, per cent of control (LATS2 (human)): 75%; kinase still bound, per cent of control (LTK (human)): 90%; kinase still bound, per cent of control (MAP3K11 (human)): 98%; kinase still bound, per cent of control (EPHA5 (human)): 89%; kinase still bound, per cent of control [1]: 78%; kinase still bound, per cent of control (CSNK1G3 (human)): 68%; kinase still bound, per cent of control (STK32B (human)): 83%; kinase still bound, per cent of control (CAMK2G (human)): 94%
